ChEMBL document CHEMBL6120951, “Viral Protein Dimerization Quality Control: A Design Strategy for a Potential Viral Inhibitor” (J Med Chem, 2024)

Tests used:
[1] = system: MT4; experiment: Cytotoxicity against human MT4 cells assessed as reduction in cell viability incubated for 72 hrs by cell-titer glo assay; format: functional
[2] = system: SARS-CoV-2; experiment: Antiviral activity against SARS-CoV-2 infected in African green monkey Vero cells assessed as reduction in viral replication; format: functional, organism-based; conditions: Severe acute respiratory syndrome coronavirus 2, Vero
[3] = Cytotoxicity against African green monkey Vero cells assessed as reduction in cell viability after 72 hrs by MTT assay; format: toxicity, cell-based; conditions: chlorocebus sabaeus
[4] = Inhibition of SARS-CoV-2 MPro using Dabcyl-KTSAVLQSGFRKME-Edans as substrate preincubated for 15 mins followed by substrate addition measured after 30 mins by FRET assay; design: species or system Severe acute respiratory syndrome coronavirus 2
[5] = system: Human immunodeficiency virus 1; experiment: Antiviral activity against HIV-1 3B infected in human MT4 cells assessed as reduction in viral replication; format: functional, organism-based; conditions: Human immunodeficiency virus 1, 3B
[6] = system: Jurkat; experiment: Cytotoxicity against human Jurkat cells assessed as reduction in cell growth incubated for 24 hrs by CellTiter-Glo luminescent cell viability assay; format: functional

SMILES: O=C(Nc1cccc(Cl)c1)C1C2CCCCC21 (configuration not stated)
- CC50 [1]: > 100 µM

SMILES: CC(C)OCCCNC(=O)c1csc(Nc2cc(F)c(Cl)c(F)c2)n1
- EC50 [2]: 110 nM
- CC50 at 72 h [3]: > 100 µM

SMILES: O=C(O)c1cc(-c2ccc(-c3ccccc3)cc2)nc2ccccc12
- IC50 [4]: 480 nM
- CC50 at 72 h [3]: > 50 µM

SMILES: N#Cc1ccc(C(=O)Nc2sc3c(c2C(=O)Nc2ccccc2O)CCCCC3)cc1
- EC50 [2]: 380 nM
- CC50 at 72 h [3]: > 250 µM

SMILES: O=C1NC(c2ccc(O)cc2)C2C(c3ccccc3)=NNC12 (configuration not stated)
- EC50 [5]: 1800 nM
- CC50 [6]: > 43 µM

SMILES: CCc1cc(-c2ccc(C(F)(F)F)o2)n(-c2ccc3c(c2)nc(-c2ccccc2O)n3Cc2ccc(=O)[nH]c2)n1
- EC50 [5]: 110 nM

SMILES: O=C(NC1CCNCC1)c1n[nH]cc1NC(=O)c1c(Cl)cccc1Cl [AT-7519]
- EC50 [2]: 25000 nM

SMILES: CC(C)Cc1sc(-c2nccs2)nc1C(=O)NCc1ccc(F)cc1
- CC50 [1]: 50.4 µM

SMILES: N#Cc1ccc(Nc2nc(-c3cccnc3)nc3ccccc23)cc1
- EC50 [5]: 4000 nM
- CC50 [6]: > 10 µM

SMILES: CC1=C(C(C2=C(C)c3ccccc3C2=O)c2ccc(C)cc2)C(=O)CC(c2ccccc2)C1 (configuration not stated)
- EC50 [2]: 1820 nM

SMILES: CC(C)(C#Cc1ccc(-c2ccc(Cl)c3c(NS(C)(=O)=O)nn(CC(F)(F)F)c23)c([C@H](Cc2cc(F)cc(F)c2)NC(=O)Cn2nc(C(F)(F)F)c3c2C(F)(F)[C@@H]2C[C@H]32)n1)S(C)(=O)=O
- EC50 [5]: 0.105 nM

SMILES: Cc1[nH]c2ccccc2c1CC(=O)N[C@@H](Cc1ccccc1)C(=O)N(C)c1ccccc1
- CC50 [6]: > 47 µM

SMILES: O=C(Nc1cc(F)c(F)c(F)c1)c1ccc(F)c(S(=O)(=O)N2CCC(O)CC2)c1
- CC50 [1]: 14.5 µM

SMILES: CCOc1cc2ncc(C#N)c(Nc3ccc(F)c(Cl)c3)c2cc1NC(=O)/C=C/CN(C)C [PELITINIB]
- EC50 [2]: 1250 nM

SMILES: O=C(CNC(=O)c1ccc(F)cc1)Nc1ccc(Cl)nc1Cl
- CC50 [1]: 144 µM

SMILES: CCN1C(=O)C(c2cc(O)cc(-c3cccnc3)c2)C(=O)N(c2ccccc2)c2cc(C(F)(F)F)ccc21 (configuration not stated)
- EC50 [5]: 480 nM

SMILES: CC(=O)Nc1ccc(-c2cc(C)c(=O)n(Cc3ccc(Cl)cc3)n2)cc1
- CC50 [1]: > 100 µM
